≈ marks a conversion by molar mass, not a printed value.
What was measured:
[1] = test system: Pseudomonas aeruginosa NCTC-10490; test: Antimicrobial activity, serial broth dilution (Test 2), Pseudomonas aeruginosa; type: cell-based; conditions: NCTC10490, overnight incubation at 37° C.
Protocol: (§1) Antimicrobial activity of the FR-900482 substance against some bacteria was determined by a serial broth dilution method in bouillon media for bacteria. Minimum inhibitory concentrations (MIC) were expressed in terms of μg/ml after overnight incubation at 37° C.

AMC60 Fibrosarcoma = test: in vivo rat ascitic tumor model, AMC60 Fibrosarcoma (Test 8); set-up: species or system rats (ACI/N); conditions: 3.2 mg/kg i.p., days 1, 5 and 9; median survival time
From the text: (§2) AMC60 Fibrosarcoma (1×10^6 cells), maintained i.p. by serial passage in female ACI/N rats, was implanted i.p. to female ACI/N rats on day 0, and the test compounds or vehicle were given i.p. to the rats once a day on days 1, 5 and 9. Seven rats were used for each test group or vehicle-treated control group.
(§3) Drug efficacy against the ascitic tumors is expressed as percentage of the median survival time of the test group to that of the control group. [formula]

AH130 Hepatoma = test: in vivo rat ascitic tumor model, AH130 Hepatoma (Test 8); set-up: species or system rats (Donryu); conditions: 1.0 mg/kg i.p., days 1, 5 and 9; median survival time
From the text: as §2, with “AH130 Hepatoma” for “AMC60 Fibrosarcoma”, “Donryu” for “ACI/N”, “Ten” for “Seven”
as §3

[2] = Existence as mixture or single component by NMR spectra or silica gel TLC with chromatoscanner; type: physicochemical
Ehrlich carcinoma = Ehrlich carcinoma in mice (Test 6); type: in vivo, mice (ICR); conditions: 3.2 mg/kg i.p., days 1, 5 and 9; median survival time
From the text: Ehrlich carcinoma (1×10^6 cells), maintained i.p. by serial passage in female ICR mice, implanted i.p. to female ICR mice on day 0, and the test compounds or vehicle were given i.p. to the mice once a day on days 1, 5 and 9.
(§4) Ten mice were used for each test group and twenty mice were used for each vehicle-treated control group.
as §3

[3] = Acute toxicity in ddY mice (Test 3); conditions: mouse, in vivo
[4] = test system: Escherichia coli NIHJ JC-2; test: Antimicrobial activity, serial broth dilution (Test 2), Escherichia coli; type: cell-based; conditions: NIHJJC2, overnight incubation at 37° C.
Protocol: as §1

EL4 Lymphoma = EL4 Lymphoma in mice (Test 6); type: in vivo, mice (BDF1); conditions: 10.0 mg/kg i.p., days 1, 5 and 9; median survival time
From the text: EL4 Lymphoma (1×10^6 cells), maintained i.p. by serial passage in female C57BL/6 mice, was implanted i.p. to female BDF1 mice on day 0, and the test compounds or vehicle were given i.p. to the mice once a day on days 1, 5 and 9.
as §4, §3

[5] = test system: Human LC-6-JCK lung carcinoma; test: Human LC-6-JCK lung carcinoma in nude mice (Test 10); type: in vivo, human (in BALB/c nu/nu mice); conditions: 10.0 mg/kg i.v., days 12, 16 and 20; evaluation day 28
Protocol: Human LC-6-JCK lung or SC-6-JCK stomach (each fragment, 2×2×2 mm), maintained s.c. by serial passage in male BALB/c nu/nu mice, was implanted s.c. to male BALB/c nu/nu mice on day 0, and the test compounds were given i.v. to the mice once a day on days 12, 16 and 20.
Tumor weight was calculated as follows: (Tumor length and width were measured by caliper.)
Tumor weight (mg)=1/2×a×b^2, where a represents length and b represents width (mm).
Tumor weights (initial) and (last) were calculated on the first injection day (just before dosing) and on day 28 (the last evaluation day), respectively.
Five mice were used for each test group and four or five mice were used for each vehicle-treated control.
Drug efficacy was expressed as percentage of mean tumor weight of the test group to that of the control group. [formula]

MM46 Mammary carcinoma = MM46 Mammary carcinoma in mice (Test 6); type: in vivo, mice (C3 H/HeN); conditions: 3.2 mg/kg i.p., days 1, 5 and 9; median survival time
From the text: MM46 Mammary carcinoma (1×10^6 cells), maintained i.p. by serial passage in female C3 H/HeN mice, was implanted i.p. to female C3 H/HeN mice on day 0, and the test compounds or vehicle were given i.p. to the mice once a day on days 1, 5 and 9.
as §4, §3

[6] = test system: Lymphocytic leukemia P388; test: Antitumor activity against lymphocytic leukemia P388 in mice (Test 1); type: in vivo, mice (BDF1); conditions: for T/C: mean survival time treated/control
Protocol: The antitumor activity of FR-900482 substance was determined in experimental tumor system in mice.
Lymphocytic leukemia P388 was implanted intraperitoneally into BDF1 mice at an inoculum size of 1×10^6 cells per mouse. Twenty-four hours after the implantation of tumor cells, graded doses of the FR-900482 substance were administered to mice intraperitoneally. Treatments were once a day on day 1, 2, 3 and 4 after the tumor inoculation. Control animals received intraperitoneal doses of physiological saline solution. The injection volume was 0.2 ml in all experiments. Six mice were used for each experimental group.
Antitumor activity was evaluated by the mean survival time of a group of mice and also expressed by the T/C % value (mean survival time of treated group/mean survival time of control group, ×100).

[7] = Mixture ratios of the two components under various pH values; type: physicochemical; conditions: pH 1.0, 0.1 N hydrochloric acid
Protocol: The FR-900482 substance was dissolved in various buffer solutions so as to make its concentration to 10 mg/ml. After allowing to stand for 2 hours, 4 μl of each of these solutions was subjected to silica gel thin layer chromatography using a mixture of chloroform and methanol (4:1, v/v) as a developing solvent. After developing, the mixture ratios of the two components were calculated by a chromatoscanner at 254 nm, the results of which are shown in the following.

B16 Melanoma = B16 Melanoma in mice (Test 5); type: in vivo, mice (BDF1); conditions: 10.0 mg/kg i.p., days 1-9
Protocol: B16 Melanoma (1:10 brei, 0.5 ml), maintained s.c. by serial passage in female C57BL/6 mice, was implanted i.p. to female BDF1 mice on day 0, and the test compounds or vehicle were given i.p. to the mice once a day on days 1-9.
Ten mice were used for each test group, and twenty mice were used for each vehicle-treated control group.
Drug efficacy against the ascitic tumors is expressed as percentage of the median (mean) survival time of the test group to that of the control group. [formula] .circle.2 Results

NC(=O)OCC1c2c(O)cc(C=O)cc2N2CC3NC3C1(O)O2 (centres unmarked) [FR-900482 substance, 4-Formyl-6,9-dihydroxy-14-oxa-1,11-diazatetracyclo[7.4.1.0^2,7.0^10,12]tetradeca-2,4,6-trien-8-ylmethyl carbamate]
MIC [1]: 25 µg/mL (≈ 77.8 µM)
T/C (AMC60 Fibrosarcoma): > 333%
T/C (AH130 Hepatoma): > 429%
existence as mixture or single component ([2]; around neutral condition): mixture of two components
existence as mixture or single component ([2]; around pH 1 condition): single component
T/C (Ehrlich carcinoma): > 270%
LD50 ([3]; ip, intraperitoneal injection): 32 mg/kg
LD50 ([3]; intravenous injection): 32 mg/kg
MIC [4]: 50 µg/mL (≈ 156 µM)
T/C (EL4 Lymphoma): 169%
1-T"/C" [5]: 100%
T/C (MM46 Mammary carcinoma): > 300%
Mean Survival time ([6]; 1.0 mg/kg i.p., days 1-4): 13.0 days
T/C ([6]; 1.0 mg/kg i.p., days 1-4): 118%
Mean Survival time ([6]; 3.2 mg/kg i.p., days 1-4): 14.0 days
T/C ([6]; 3.2 mg/kg i.p., days 1-4): 127%
Mean Survival time ([6]; 5.6 mg/kg i.p., days 1-4): 16.0 days
T/C ([6]; 5.6 mg/kg i.p., days 1-4): 145%
Mean Survival time ([6]; 10 mg/kg i.p., days 1-4): 24.5 days
T/C ([6]; 10 mg/kg i.p., days 1-4): 223%
Mean Survival time ([6]; 18 mg/kg i.p., days 1-4): 29.0 days
T/C ([6]; 18 mg/kg i.p., days 1-4): 264%
increase in life span in mice ([6]; doses between 3.2-18 mg/kg i.p.): significant increase in life span
activity against the leukemia P388 ([6]; i.p., days 1-4): quite active
Ratios of the two components [7]: single component
T/C (B16 Melanoma): 350%

From US4861774A, “Method of treating tumors using tetracyclo compounds” (priority 1984, dated 1989)
